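Where inhibition never reached the appropriate level, the endpoint shown equals the highest concentration tested. Otherwise, values were interpolated linearly from a five-concentration, 48-hour dose response in 96-well plates. GI50 marks 50% less growth. The concentration for full growth arrest is given as TGI.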
Columns and labels:
Test in all cases: NCI tumour cell line growth inhibition, 48 h; in the data active means GI50 below about 0.43 µM; inactive means the rest
A498 renal = system: A498 renal
A549 NSCLC = system: A549 NSCLC
HCC-2998 colon = system: HCC-2998 colon
M14 melanoma = system: M14 melanoma
MOLT-4 leukemia = system: MOLT-4 leukemia
OVCAR-3 ovarian = system: OVCAR-3 ovarian
OVCAR-5 ovarian = system: OVCAR-5 ovarian
SF-295 CNS = system: SF-295 CNS
SK-MEL-28 melanoma = system: SK-MEL-28 melanoma
MALME-3M melanoma = system: MALME-3M melanoma

C[n+]1c(-c2ccccc2)cc2/c(=C\c3ccc([N+](=O)[O-])cc3)c3ccccc3n21
> 30.8 µM: TGI (MOLT-4 leukemia)
15.5 µM: TGI (OVCAR-3 ovarian)
21.4 µM: TGI (SF-295 CNS)
> 100 µM: TGI (A498 renal) | TGI (A549 NSCLC) | TGI (HCC-2998 colon)
24 µM: TGI (SK-MEL-28 melanoma)
> 37.6 µM: TGI (M14 melanoma)
54.2 µM: TGI (OVCAR-5 ovarian)

COc1cc(C2c3cc4c(cc3OC(NN=C(C)C)C2C)OCO4)cc(OC)c1O (stereo not given)
31.6 µM: TGI (HCC-2998 colon)
> 100 µM: TGI (A549 NSCLC) | TGI (M14 melanoma) | TGI (MALME-3M melanoma) | TGI (OVCAR-3 ovarian) | TGI (OVCAR-5 ovarian) | TGI (SF-295 CNS) | TGI (SK-MEL-28 melanoma)

CCOC(=O)C1=C(C(C)=O)CSC(c2ccccc2)=N1
> 100 µM: TGI (A498 renal) | TGI (A549 NSCLC) | TGI (HCC-2998 colon) | TGI (MALME-3M melanoma) | TGI (MOLT-4 leukemia) | TGI (OVCAR-3 ovarian) | TGI (OVCAR-5 ovarian) | TGI (SF-295 CNS) | TGI (SK-MEL-28 melanoma)

N#Cc1nc(-c2cc([N+](=O)[O-])cc([N+](=O)[O-])c2)oc1N
> 10 µM: TGI (A549 NSCLC) | TGI (HCC-2998 colon) | TGI (M14 melanoma) | TGI (MALME-3M melanoma) | TGI (MOLT-4 leukemia) | TGI (SF-295 CNS) | TGI (SK-MEL-28 melanoma)

O=C1CCSSCCC(=O)NCCN1
> 100 µM: TGI (A498 renal) | TGI (A549 NSCLC) | TGI (M14 melanoma) | TGI (MALME-3M melanoma) | TGI (MOLT-4 leukemia) | TGI (OVCAR-3 ovarian) | TGI (OVCAR-5 ovarian) | TGI (SF-295 CNS) | TGI (SK-MEL-28 melanoma)

COc1cc(/C=C/C(=O)O)ccc1C(=O)O/C=C/c1ccccc1
> 100 µM: TGI (A498 renal) | TGI (A549 NSCLC) | TGI (MALME-3M melanoma) | TGI (MOLT-4 leukemia) | TGI (OVCAR-3 ovarian) | TGI (OVCAR-5 ovarian) | TGI (SF-295 CNS) | TGI (SK-MEL-28 melanoma)

CCN(CC)CCNc1ccc2nnn3c4ccc(OC)cc4c(=O)c1c23
27 µM: TGI (A498 renal)
18.6 µM: TGI (SF-295 CNS)
22.3 µM: TGI (MALME-3M melanoma)
28.9 µM: TGI (SK-MEL-28 melanoma)
19.4 µM: TGI (A549 NSCLC)
23.5 µM: TGI (M14 melanoma)
23.7 µM: TGI (OVCAR-5 ovarian)
13.1 µM: TGI (MOLT-4 leukemia)
31.4 µM: TGI (OVCAR-3 ovarian)

Cc1cc(C)c2c(=O)n(CN3CC4Nc5ccccc5C4C3)sc2n1 (stereo not given)
82.3 µM: TGI (SK-MEL-28 melanoma)
42.4 µM: TGI (OVCAR-5 ovarian)
63.1 µM: TGI (M14 melanoma)
> 100 µM: TGI (A498 renal) | TGI (A549 NSCLC) | TGI (SF-295 CNS)
95.3 µM: TGI (MOLT-4 leukemia)
27.8 µM: TGI (MALME-3M melanoma)
98.5 µM: TGI (OVCAR-3 ovarian)

CC(C)=C[C@@H]1C[C@H](n2cc(C)c(=O)[nH]c2=O)ON1CCO
> 100 µM: TGI (A498 renal) | TGI (A549 NSCLC) | TGI (M14 melanoma) | TGI (MALME-3M melanoma) | TGI (MOLT-4 leukemia) | TGI (OVCAR-3 ovarian) | TGI (OVCAR-5 ovarian) | TGI (SF-295 CNS) | TGI (SK-MEL-28 melanoma)

COC(=O)c1c(C)cccc1/C=C1/Cc2c(C)cccc2C1=O
> 100 µM: TGI (A498 renal) | TGI (A549 NSCLC) | TGI (HCC-2998 colon) | TGI (MALME-3M melanoma) | TGI (MOLT-4 leukemia) | TGI (OVCAR-3 ovarian) | TGI (OVCAR-5 ovarian) | TGI (SF-295 CNS) | TGI (SK-MEL-28 melanoma)

COc1ccc(/C(=N/O)c2ccccc2-c2nc3ccccc3c(=O)n2-c2ccc(S(=O)(=O)Nc3ncccn3)cc2)cc1C
23.8 µM: TGI (MOLT-4 leukemia)
25.9 µM: TGI (OVCAR-3 ovarian)
21.7 µM: TGI (HCC-2998 colon)
23 µM: TGI (SK-MEL-28 melanoma)
27.9 µM: TGI (SF-295 CNS)
> 31.6 µM: TGI (A498 renal) | TGI (A549 NSCLC) | TGI (M14 melanoma) | TGI (OVCAR-5 ovarian)

COc1ccc(N2C(=O)c3c4c(c5c([nH]c6ncccc65)c3C2=O)CCC(C(C)(C)C)C4)cc1 (stereo not given)
> 100 µM: TGI (A549 NSCLC) | TGI (HCC-2998 colon) | TGI (M14 melanoma) | TGI (OVCAR-3 ovarian) | TGI (SF-295 CNS) | TGI (SK-MEL-28 melanoma)

O=C1NCCCc2nonc21
> 100 µM: TGI (A549 NSCLC) | TGI (HCC-2998 colon) | TGI (M14 melanoma) | TGI (MALME-3M melanoma) | TGI (MOLT-4 leukemia) | TGI (OVCAR-3 ovarian) | TGI (OVCAR-5 ovarian) | TGI (SF-295 CNS) | TGI (SK-MEL-28 melanoma)

Oc1ccc(-c2nnc3sc(-c4ccc(F)cc4)nn23)cc1
59.9 µM: TGI (SF-295 CNS)
> 100 µM: TGI (A549 NSCLC) | TGI (HCC-2998 colon) | TGI (MALME-3M melanoma) | TGI (MOLT-4 leukemia) | TGI (OVCAR-3 ovarian) | TGI (OVCAR-5 ovarian) | TGI (SK-MEL-28 melanoma)
inactive: GI50 (A549 NSCLC) > 100 µM | GI50 (HCC-2998 colon) > 100 µM | GI50 (MALME-3M melanoma) > 100 µM | GI50 (MOLT-4 leukemia) 33.6 µM | GI50 (OVCAR-3 ovarian) 18.6 µM | GI50 (OVCAR-5 ovarian) > 100 µM | GI50 (SF-295 CNS) 18.1 µM | GI50 (SK-MEL-28 melanoma) > 100 µM

NC(=O)C(=O)N/N=C1/c2ccccc2CC1C1(O)C(=O)Nc2c(Cl)cc(Cl)cc21 (stereo not given)
> 100 µM: TGI (A498 renal) | TGI (A549 NSCLC) | TGI (HCC-2998 colon) | TGI (MALME-3M melanoma) | TGI (MOLT-4 leukemia) | TGI (OVCAR-3 ovarian) | TGI (OVCAR-5 ovarian) | TGI (SF-295 CNS) | TGI (SK-MEL-28 melanoma)

COC(=O)c1ccccc1/C=C1/Cc2ccccc2C1=O
78.5 µM: TGI (MOLT-4 leukemia)
> 100 µM: TGI (A498 renal) | TGI (A549 NSCLC) | TGI (HCC-2998 colon) | TGI (MALME-3M melanoma) | TGI (OVCAR-3 ovarian) | TGI (OVCAR-5 ovarian) | TGI (SF-295 CNS) | TGI (SK-MEL-28 melanoma)

Cc1cc(-c2nc3c(O)cccc3s2)ccc1N
39.5 µM: TGI (M14 melanoma)
47.9 µM: TGI (A549 NSCLC)
> 100 µM: TGI (HCC-2998 colon) | TGI (MOLT-4 leukemia) | TGI (OVCAR-3 ovarian) | TGI (SK-MEL-28 melanoma)
72.2 µM: TGI (SF-295 CNS)

COc1cc(/C=C2\C(=O)N(C(=O)Cc3ccccc3)N=C2C)ccc1O
> 100 µM: TGI (A549 NSCLC) | TGI (HCC-2998 colon) | TGI (M14 melanoma) | TGI (MALME-3M melanoma) | TGI (MOLT-4 leukemia) | TGI (OVCAR-3 ovarian) | TGI (OVCAR-5 ovarian) | TGI (SF-295 CNS) | TGI (SK-MEL-28 melanoma)

Source: PubChem BioAssay (NCI)
